Legend:
[1] = Determination of the microsomal half-life / microsomal clearance, human liver microsomes; conditions: 0.5 μM test substance, 0.25 mg microsomal protein/ml, pH 7.4, 37° C., NADPH
Description: (§1) The test substances were incubated in a concentration of 0.5 μM as follows:
(§2) 0.5 μM test substance are preincubated together with liver microsomes from different species (from rat, human or other species) (0.25 mg of microsomal protein/ml) in 0.05 M potassium phosphate buffer of pH 7.4 in microtiter plates at 37° C. for 5 min. The reaction is started by adding NADPH (1 mg/mL). After 0, 5, 10, 15, 20 and 30 min, 50 μl aliquots are removed, and the reaction is immediately stopped and cooled with the same volume of acetonitrile. The samples are frozen until analyzed. The remaining concentration of undegraded test substance is determined by MSMS. The half-life (T½) is determined from the gradient of the signal of test substance/unit time plot, it being possible to calculate the half-life of the test substance, assuming first order kinetics, from the decrease in the concentration of the compound with time. The microsomal clearance (mCl) is calculated from mCl=ln 2/T½/(content of microsomal protein in mg/ml)×1000 [ml/min/mg]

[2] = Determination of the microsomal half-life / microsomal clearance, rat liver microsomes; conditions: 0.5 μM test substance, 0.25 mg microsomal protein/ml, pH 7.4, 37° C., NADPH
Description: as §1, §2

PDE10A = PDE10A (UniProt Q9Y233); experiment: Measurement of PDE activity (HTRF cAMP assay, recombinant enzyme); assay type: biochemical; conditions: 20 nM cyclic nucleotide substrate, 60 minutes at 29 C
Description: The recombinant PDE proteins are used in in vitro enzymatic reaction for measurement of PDE activity. These recombinant proteins, including PDE10A (human, rat and mouse PDE10) and isoforms of PDEs 1, 3, 4, and 5, were purchased from commercial vendor BPS Bioscience. The enzymatic activity of PDEs was determined by cAMP measurement kit from CisBio (IBA) using HTRF technology.
The PDE enzymatic reaction was carried out in assay buffer (20 mM Tris-HCl pH7.5, 10 mM MgCl2, 0.1% bovine serum albumin) containing enzyme and substrate. The PDE enzymes concentration ranged from 10 pM-250 pM, depending on each enzyme's specific activity. The substrate cyclic nucleotide (cAMP or cGMP) concentration used in the assay was 20 nM for PDE10, and 100 nM for other PDEs. The inhibitory effect of compound was determined by incubating various concentration of inhibitor in the enzymatic assay. Typically, compound was serial diluted in DMSO then further diluted in assay buffer. Next, the compound at varying concentration was mixed with PDE enzyme. The reaction was initiated by addition of cyclic nucleotide substrate, and incubated for 60 minutes at 29 C. The reaction was stopped by addition of lysis buffer from assay kit. The cAMP-d2 and anti-cAMP cryptate in the lysis buffer detected the level of cAMP left from the PDE hydrolysis reaction. The PDE activity is reversely correlated with the amount of cAMP left in the reaction and can be converted to the percent activity of an uninhibited control (100%). Thus, IC50 value of inhibitor can be obtained by plotting inhibitor concentration against PDE activity at that concentration.

| Molecule | Human mCl [1] | Rat mCl [2] | IC50 (PDE10A) |
| --- | --- | --- | --- |
| Cn1nccc1-c1c2c(cn(C)c1=O)CN(CCc1ccc3ccccc3n1)C2=O [Example 30, 5-Methyl-7-(2-methyl-2H-pyrazol-3-yl)-2-(2-quinolin-2-yl-ethyl)-3,5-dihydro-2H-pyrrolo[3,4-c]pyridine-1,6-dione] | – | – | > 500 nM |
| Cn1cc2c(c(-c3cn[nH]c3)c1=O)C(=O)N(CCc1ccc3ccccc3n1)C2 [Example 29, 5-Methyl-7-(1H-pyrazol-4-yl)-2-(2-quinolin-2-yl-ethyl)-3,5-dihydro-2H-pyrrolo[3,4-c]pyridine-1,6-dione] | +++ (+++ <10 μl min^−1 mg^−1) | ++ (++: <100 μl min^−1 mg^−1) | > 500 nM |
| Cn1cc2c(c(N3CCOCC3)c1=O)C(=O)N(CCc1nc3ccccn3n1)C2 [Example 24, 5-Methyl-7-morpholin-4-yl-2-(2-[1,2,4]triazolo[1,5-a]pyridin-2-yl-ethyl)-3,5-dihydro-2H-pyrrolo[3,4-c]pyridine-1,6-dione] | ++ (++: <100 μl min^−1 mg^−1) | ++ (++: <100 μl min^−1 mg^−1) | > 500 nM |
| COc1ccc(Cn2cc3c(c(N4CCOCC4)c2=O)C(=O)N(CCc2ccc4ccccc4n2)C3)cc1 [Example 14, 5-(4-Methoxy-benzyl)-7-morpholin-4-yl-2-(2-quinolin-2-yl-ethyl)-3,5-dihydro-2H-pyrrolo[3,4-c]pyridine-1,6-dione] | ∘ (∘: >220 μl min^−1 mg^−1) | + (+: 100-220 μl min^−1 mg^−1) | < 100 nM |
| Cn1cc2c(c(-c3ccncc3)c1=O)C(=O)N(CCc1ccc3ccccc3n1)C2 [Example 11, 5-Methyl-7-pyridin-4-yl-2-(2-quinolin-2-yl-ethyl)-3,5-dihydro-2H-pyrrolo[3,4-c]pyridine-1,6-dione] | – | – | 100 to 200 nM |
| O=C1c2c(c[nH]c(=O)c2N2CCOCC2)CN1CCc1ccc2ccccc2n1 [Example 15, 7-Morpholin-4-yl-2-(2-quinolin-2-yl-ethyl)-3,5-dihydro-2H-pyrrolo[3,4-c]pyridine-1,6-dione] | ++ (++: <100 μl min^−1 mg^−1) | ++ (++: <100 μl min^−1 mg^−1) | < 100 nM |
| Cn1cc2c(c(N3CCOCC3)c1=O)C(=O)N(CC(F)(F)c1ccc3ccccc3n1)C2 [Example 34, 2-(2,2-Difluoro-2-quinolin-2-yl-ethyl)-5-methyl-7-morpholin-4-yl-3,5-dihydro-2H-pyrrolo[3,4-c]pyridine-1,6-dione] | ++ (++: <100 μl min^−1 mg^−1) | ++ (++: <100 μl min^−1 mg^−1) | < 100 nM |
| 2-(2-Imidazo[1,2-a]pyridin-2-yl-ethyl)-5-methyl-7-morpholin-4-yl-3,5-dihydro-2H-pyrrolo[3,4-c]pyridine-1,6-dione [Example 23] | – | – | > 500 nM |
| COc1ccc(-c2c3c(cn(C)c2=O)CN(CCc2ccc4ccccc4n2)C3=O)cc1 [Example 31, 7-(4-Methoxy-phenyl)-5-methyl-2-(2-quinolin-2-yl-ethyl)-3,5-dihydro-2H-pyrrolo[3,4-c]pyridine-1,6-dione] | ++ (++: <100 μl min^−1 mg^−1) | ++ (++: <100 μl min^−1 mg^−1) | 100 to 200 nM |
| CN1CCN(c2c3c(cn(C)c2=O)CN(CCc2ccc4ccccc4n2)C3=O)CC1 [Example 10, 5-Methyl-7-(4-methyl-piperazin-1-yl)-2-(2-quinolin-2-yl-ethyl)-3,5-dihydro-2H-pyrrolo[3,4-c]pyridine-1,6-dione] | +++ (+++ <10 μl min^−1 mg^−1) | +++ (+++ <10 μl min^−1 mg^−1) | – |
| Cn1cc2c(c(N3CCOCC3)c1=O)C(=O)N(CCc1cn3ccccc3n1)C2 [Example 22, 2-(2-Imidazo[1,2-a]pyridin-2-yl-ethyl)-5-methyl-7-morpholin-4-yl-3,5-dihydro-2H-pyrrolo[3,4-c]pyridine-1,6-dione] | +++ (+++ <10 μl min^−1 mg^−1) | ++ (++: <100 μl min^−1 mg^−1) | < 100 nM |
| O=C1c2c(cn(CCO)c(=O)c2N2CCOCC2)CN1CCc1ccc2ccccc2n1 [Example 19, 5-(2-Hydroxy-ethyl)-7-morpholin-4-yl-2-(2-quinolin-2-yl-ethyl)-3,5-dihydro-2H-pyrrolo[3,4-c]pyridine-1,6-dione] | ++ (++: <100 μl min^−1 mg^−1) | +++ (+++ <10 μl min^−1 mg^−1) | < 100 nM |
| Cn1cc2c(c(-c3cncnc3)c1=O)C(=O)N(CCc1ccc3ccccc3n1)C2 [Example 28, 5-Methyl-7-pyrimidin-5-yl-2-(2-quinolin-2-yl-ethyl)-3,5-dihydro-2H-pyrrolo[3,4-c]pyridine-1,6-dione] | ++ (++: <100 μl min^−1 mg^−1) | ++ (++: <100 μl min^−1 mg^−1) | 100 to 200 nM |
| Cn1cc2c(c(-c3ccncc3)c1=O)CN(CCc1ccc3ccccc3n1)C2=O [Example 8, 5-Methyl-7-pyridin-4-yl-2-(2-quinolin-2-yl-ethyl)-1,2-dihydro-5H-pyrrolo[3,4-c]pyridine-3,6-dione] | – | – | > 500 nM |

Further lines, results first:

| Human mCl [1] | Rat mCl [2] | IC50 (PDE10A) | Molecule |
| --- | --- | --- | --- |
| ++ (++: <100 μl min^−1 mg^−1) | ++ (++: <100 μl min^−1 mg^−1) | < 100 nM | COCCn1cc2c(c(N3CCOCC3)c1=O)C(=O)N(CCc1ccc3ccccc3n1)C2 [Example 18, 5-(2-Methoxy-ethyl)-7-morpholin-4-yl-2-(2-quinolin-2-yl-ethyl)-3,5-dihydro-2H-pyrrolo[3,4-c]pyridine-1,6-dione] |
| ++ (++: <100 μl min^−1 mg^−1) | ++ (++: <100 μl min^−1 mg^−1) | > 500 nM | Cn1cc2c(c(N3CCOCC3)c1=O)CN(CCc1ccc3ccccc3n1)C2=O [Example 6, 5-Methyl-7-morpholin-4-yl-2-(2-quinolin-2-yl-ethyl)-1,2-dihydro-5H-pyrrolo[3,4-c]pyridine-3,6-dione] |
| +++ (+++ <10 μl min^−1 mg^−1) | +++ (+++ <10 μl min^−1 mg^−1) | 100 to 200 nM | Cn1cc2c(c(N3CCOCC3)c1=O)C(=O)N(CCc1nc3ccccc3s1)C2 [Example 33, 2-[2-(1,3-benzothiazol-2-yl)ethyl]-5-methyl-7-morpholin-4-yl-3,5-dihydro-2H-pyrrolo[3,4-c]pyridine-1,6-dione] |
| +++ (+++ <10 μl min^−1 mg^−1) | +++ (+++ <10 μl min^−1 mg^−1) | > 500 nM | Cn1cc2c(c(N3CCOCC3)c1=O)C(=O)N(CCc1nc3n(n1)CCCC3)C2 [Example 25, 5-Methyl-7-morpholin-4-yl-2-[2-(5,6,7,8-tetrahydro-[1,2,4]triazolo[1,5-a]pyridin-2-yl)-ethyl]-3,5-dihydro-2H-pyrrolo[3,4-c]pyridine-1,6-dione] |
| – | – | < 100 nM | Cn1cc2c(c(N3CCOCC3)c1=O)C(=O)N(CCc1ccc3ccccc3n1)C2(F)F [Example 35, 3,3-Difluoro-5-methyl-7-morpholin-4-yl-2-(2-quinolin-2-yl-ethyl)-3,5-dihydro-2H-pyrrolo[3,4-c]pyridine-1,6-dione] |
| ++ (++: <100 μl min^−1 mg^−1) | ++ (++: <100 μl min^−1 mg^−1) | < 100 nM | Cn1cc2c(c(N3CCOCC3)c1=O)C(=O)N(CCc1nc3ccccc3n1C)C2 [Example 20, 5-Methyl-2-[2-(1-methyl-1H-benzoimidazol-2-yl)-ethyl]-7-morpholin-4-yl-3,5-dihydro-2H-pyrrolo[3,4-c]pyridine-1,6-dione] |
| +++ (+++ <10 μl min^−1 mg^−1) | ++ (++: <100 μl min^−1 mg^−1) | 100 to 200 nM | Cn1cc2c(c(-c3ccc(F)cc3)c1=O)C(=O)N(CCc1ccc3ccccc3n1)C2 [Example 27, 7-(4-Fluoro-phenyl)-5-methyl-2-(2-quinolin-2-yl-ethyl)-3,5-dihydro-2H-pyrrolo[3,4-c]pyridine-1,6-dione] |
| ++ (++: <100 μl min^−1 mg^−1) | ++ (++: <100 μl min^−1 mg^−1) | < 100 nM | Cn1cc2c(c(N3CCOCC3)c1=O)C(=O)N(CCc1ccc3ccccc3n1)C2=O [Example 1, 5-Methyl-7-morpholin-4-yl-2-(2-quinolin-2-yl-ethyl)-5H-pyrrolo[3,4-c]pyridine-1,3,6-trione] |
| ++ (++: <100 μl min^−1 mg^−1) | ++ (++: <100 μl min^−1 mg^−1) | < 100 nM | Cn1cc2c(c(N3CCOCC3)c1=O)C(=O)N(CCc1ccc3ccccc3n1)C2 [Example 9, 5-Methyl-7-morpholin-4-yl-2-(2-quinolin-2-yl-ethyl)-3,5-dihydro-2H-pyrrolo[3,4-c]pyridine-1,6-dione] |
| ++ (++: <100 μl min^−1 mg^−1) | +++ (+++ <10 μl min^−1 mg^−1) | 100 to 200 nM | Cn1cc2c(c(N3CCS(=O)(=O)CC3)c1=O)C(=O)N(CCc1ccc3ccccc3n1)C2 [Example 12, 5-Methyl-7-(1,1-dioxo-thiomorpholin-4-yl)-2-(2-quinolin-2-yl-ethyl)-3,5-dihydro-2H-pyrrolo[3,4-c]pyridine-1,6-dione] |
| – | – | > 500 nM | 5-Methyl-7-morpholin-4-yl-2-(2-[1,2,4]triazolo[1,5-a]pyridin-2-yl-ethyl)-5H-pyrrolo[3,4-c]pyridine-1,3,6-trione [Example 5] |

Reference: patent US9475808B2, “Inhibitor compounds of phosphodiesterase type 10A” (AbbVie Deutschland GmbH & Co. KG, priority 2013, dated 2016)
